From patent US20180201592A1, “2-AMINO-1,3,4-THIADIAZINE AND 2-AMINO-1,3,4-OXADIAZINE BASED ANTIFUNGAL AGENTS” (F2G Limited, priority 2015, published 2018)

How the values were obtained:
Details in all cases: banded MIC grade
Aspergillus fumigatus = assay: Minimum inhibitory concentration, YAG medium; format: cell-based
Experimental: (§1) Between 1 and 5 mgs of compound were accurately weighed out into a sterile Eppendorf tube. The compound was dissolved in DMSO to give a solution containing 5 mg/mL. Tubes were stored at −20° C. until required.
(§2) On the day of testing thawed solutions were vortex mixed to ensure homogeneity. 30 μL of solution was removed and added to 570 μL of sterile water in a separate sterile Eppendorf. The thoroughly mixed solution was used to prepare a series of doubling dilutions in water, in a deep well plate. Thirteen replicate plates were prepared using a Minitrak by aspirating 20 μL from each well into eleven clear polystyrene 96 well plates.
(§3) Spores of Aspergillus spp. (Aspergillus fumigatus [two strains], Aspergillus terreus [two strains], Aspergillus niger and Aspergillus flavus) were harvested from cultures grown on Sabarauds agar for 5 days, and resuspended in PBS/Tween 80 to approx 1×10^7 cfu/mL. Each organism suspension was diluted in YAG medium (1% glucose, 1% ammonium chloride and 0.5% yeast extract) to 0.5-2×10^4cfu/mL. 80 μL of an organism suspension was added to each well of the plate containing drug dilutions.
(§4) This typically produced MIC plates with a drug range 50-0.05 mg/L and organism inocula of 1-2×10^4 cfu/mL for Aspergillus spp. All plates were incubated for 24 hrs at 35° C. Growth was assessed by monitoring the optical density at 485 nm for each well. The MIC of a compound is the lowest drug concentration that inhibits growth of an organism by >70% compared with a drug free control. MICs are recorded as mg/L. In cases where the MIC of an organism is […] the MIC is repeated using a concentration range of 0.5-0.0005 mg/L.

A. fumigatus 210 = assay: Minimum inhibitory concentration, YAG medium; format: cell-based, Aspergillus fumigatus
Experimental: as §1, §2, §3, §4

A. terreus 49 = assay: Minimum inhibitory concentration, YAG medium; format: cell-based, Aspergillus terreus
Experimental: (§5) The compound was dissolved in DMSO to give a solution containing 5 mg/mL. Tubes were stored at −20° C. until required. On the day of testing thawed solutions were vortex mixed to ensure homogeneity. 30 μL of solution was removed and added to 570 μL of sterile water in a separate sterile Eppendorf. The thoroughly mixed solution was used to prepare a series of doubling dilutions in water, in a deep well plate. Thirteen replicate plates were prepared using a Minitrak by aspirating 20 μL from each well into eleven clear polystyrene 96 well plates. Spores of Aspergillus spp. […] All plates were incubated for 24 hrs at 35° C. Growth was assessed by monitoring the optical density at 485 nm for each well. […] MICs are recorded as mg/L.

Aspergillus flavus = assay: Minimum inhibitory concentration, YAG medium; format: cell-based
Experimental: as §5

Aspergillus niger = assay: Minimum inhibitory concentration, YAG medium; format: cell-based
Experimental: as §5

Aspergillus terreus = assay: Minimum inhibitory concentration, YAG medium; format: cell-based
Experimental: as §5

C. albicans = assay: Minimum inhibitory concentration, RPMI medium; format: cell-based
Experimental: as §5, with “Assays were also performed in RPMI medium (Roswell Park Memorial Media 1640). To perform MIC tests in this medium, dilutions” for “Spores”, “compounds are prepared in microtitre plates as described above.” for “Aspergillus spp.”, “24-48” for “24”, “The following organisms were tested: […]” for “MICs are recorded as mg/L.”

C. parapsilosis = assay: Minimum inhibitory concentration, RPMI medium; format: cell-based
Experimental: as §5, with “Assays were also performed in RPMI medium (Roswell Park Memorial Media 1640). To perform MIC tests in this medium, dilutions” for “Spores”, “compounds are prepared in microtitre plates as described above.” for “Aspergillus spp.”, “24-48” for “24”, “The following organisms were tested: […]” for “MICs are recorded as mg/L.”

C. tropicalis = assay: Minimum inhibitory concentration, RPMI medium; format: cell-based
Experimental: as §5, with “Assays were also performed in RPMI medium (Roswell Park Memorial Media 1640). To perform MIC tests in this medium, dilutions” for “Spores”, “compounds are prepared in microtitre plates as described above.” for “Aspergillus spp.”, “24-48” for “24”, “The following organisms were tested: […]” for “MICs are recorded as mg/L.”

Row | SMILES | MIC grade, A. FUMIGATUS, YAG media (Aspergillus fumigatus) | MIC grade, A. FUMIGATUS 210, YAG media (A. fumigatus 210) | MIC grade, A. TERREUS 49, YAG media (A. terreus 49) | MIC grade, A. FLAVUS, YAG media (Aspergillus flavus) | MIC grade, A. NIGER, YAG media (Aspergillus niger) | MIC grade, A. TERREUS, YAG media (Aspergillus terreus) | MIC grade, C. ALBICANS, RPMI media (C. albicans) | MIC grade, C. PARAPSILOSIS, RPMI media (C. parapsilosis) | MIC grade, C. TROPICALIS, RPMI media (C. tropicalis)
1 | N#Cc1ccc(COCCC2=NN=C(N)SC2)cc1 | 4 (4: <0.2 mg/L) | 4 (4: <0.2 mg/L) | 4 (4: <0.2 mg/L) | 3 (3: 0.2-1 mg/L) | 4 (4: <0.2 mg/L) | 4 (4: <0.2 mg/L) | 2 (2: 5-20 mg/L) | 2 (2: 5-20 mg/L) | 1 (1: ≥20 mg/L)
2 | CCCC(C)OCCC1=NN=C(N)SC1 (stereo not drawn) | 2 (2: 1-5 mg/L) | 3 (3: 0.2-1 mg/L) | 2 (2: 1-5 mg/L) | 2 (2: 1-5 mg/L) | 4 (4: <0.2 mg/L) | 3 (3: 0.2-1 mg/L) | 2 (2: 5-20 mg/L) | 3 (3: 1-5 mg/L) | 1 (1: ≥20 mg/L)
3 | Cc1ccc(OCCC2=NN=C(N)SC2)cc1 | 3 (3: 0.2-1 mg/L) | 4 (4: <0.2 mg/L) | 3 (3: 0.2-1 mg/L) | 3 (3: 0.2-1 mg/L) | 3 (3: 0.2-1 mg/L) | 3 (3: 0.2-1 mg/L) | 1 (1: ≥20 mg/L) | 4 (4: <1 mg/L) | 2 (2: 5-20 mg/L)
4 | NC1=NN=C(CCOc2ccc(-c3ccccc3)cc2)CS1 | 1 (1: ≥5 mg/L) | 1 (1: ≥5 mg/L) | 2 (2: 1-5 mg/L) | 2 (2: 1-5 mg/L) | 2 (2: 1-5 mg/L) | 2 (2: 1-5 mg/L) | 1 (1: ≥20 mg/L) | 1 (1: ≥20 mg/L) | 1 (1: ≥20 mg/L)
5 | CCCOc1ccc(CCC2=NN=C(N)SC2)cc1 | 4 (4: <0.2 mg/L) | 4 (4: <0.2 mg/L) | 4 (4: <0.2 mg/L) | 3 (3: 0.2-1 mg/L) | 4 (4: <0.2 mg/L) | 4 (4: <0.2 mg/L) | 4 (4: <1 mg/L) | 4 (4: <1 mg/L) | 3 (3: 1-5 mg/L)
6 | COc1ccc(COCCC2=NN=C(N)SC2)cc1 | 3 (3: 0.2-1 mg/L) | 3 (3: 0.2-1 mg/L) | 3 (3: 0.2-1 mg/L) | 3 (3: 0.2-1 mg/L) | 3 (3: 0.2-1 mg/L) | 3 (3: 0.2-1 mg/L) | 2 (2: 5-20 mg/L) | 3 (3: 1-5 mg/L) | 2 (2: 5-20 mg/L)
7 | NC1=NN=C(CCOCc2ccc(-c3ccccc3)cc2)CS1 | 1 (1: ≥5 mg/L) | 1 (1: ≥5 mg/L) | 3 (3: 0.2-1 mg/L) | 3 (3: 0.2-1 mg/L) | 3 (3: 0.2-1 mg/L) | 3 (3: 0.2-1 mg/L) | 1 (1: ≥20 mg/L) | 2 (2: 5-20 mg/L) | 2 (2: 5-20 mg/L)
8 | Cc1ccc(COCCC2=NN=C(N)SC2)cc1 | 4 (4: <0.2 mg/L) | 4 (4: <0.2 mg/L) | 4 (4: <0.2 mg/L) | 3 (3: 0.2-1 mg/L) | 4 (4: <0.2 mg/L) | 4 (4: <0.2 mg/L) | 3 (3: 1-5 mg/L) | 3 (3: 1-5 mg/L) | 2 (2: 5-20 mg/L)
9 | NC1=NN=C(CCCCC(=O)Nc2ccccc2)CS1 | 3 (3: 0.2-1 mg/L) | 3 (3: 0.2-1 mg/L) | 2 (2: 1-5 mg/L) | 3 (3: 0.2-1 mg/L) | 2 (2: 1-5 mg/L) | 2 (2: 1-5 mg/L) | 1 (1: ≥20 mg/L) | 2 (2: 5-20 mg/L) | 1 (1: ≥20 mg/L)
10 | NC1=NN=C(CCCOc2ccccc2)CS1 | 4 (4: <0.2 mg/L) | 4 (4: <0.2 mg/L) | 3 (3: 0.2-1 mg/L) | 4 (4: <0.2 mg/L) | 4 (4: <0.2 mg/L) | 4 (4: <0.2 mg/L) | 2 (2: 5-20 mg/L) | 4 (4: <1 mg/L) | 3 (3: 1-5 mg/L)
11 | NC1=NN=C(CCCCOc2ccccc2)CS1 | 3 (3: 0.2-1 mg/L) | 3 (3: 0.2-1 mg/L) | 4 (4: <0.2 mg/L) | 4 (4: <0.2 mg/L) | 4 (4: <0.2 mg/L) | 4 (4: <0.2 mg/L) | 4 (4: <1 mg/L) | 4 (4: <1 mg/L) | 3 (3: 1-5 mg/L)
12 | NC1=NN=C(CCCCCCOc2ccccc2)CS1 | 4 (4: <0.2 mg/L) | 4 (4: <0.2 mg/L) | 4 (4: <0.2 mg/L) | 4 (4: <0.2 mg/L) | 4 (4: <0.2 mg/L) | 4 (4: <0.2 mg/L) | 3 (3: 1-5 mg/L) | 4 (4: <1 mg/L) | 4 (4: <1 mg/L)
13 | NC1=NN=C(CCCCCCc2ccccc2)CS1 | 4 (4: <0.2 mg/L) | 4 (4: <0.2 mg/L) | 3 (3: 0.2-1 mg/L) | 4 (4: <0.2 mg/L) | 4 (4: <0.2 mg/L) | 4 (4: <0.2 mg/L) | 2 (2: 5-20 mg/L) | 4 (4: <1 mg/L) | 3 (3: 1-5 mg/L)
14 | COCC1=NN=C(N)SC1 | 2 (2: 1-5 mg/L) | 2 (2: 1-5 mg/L) | 2 (2: 1-5 mg/L) | 2 (2: 1-5 mg/L) | 2 (2: 1-5 mg/L) | 2 (2: 1-5 mg/L) | 2 (2: 5-20 mg/L) | 2 (2: 5-20 mg/L) | 2 (2: 5-20 mg/L)
15 | NC1=NN=C(COc2ccccc2)CS1 | 4 (4: <0.2 mg/L) | 4 (4: <0.2 mg/L) | 3 (3: 0.2-1 mg/L) | 4 (4: <0.2 mg/L) | 3 (3: 0.2-1 mg/L) | 3 (3: 0.2-1 mg/L) | 2 (2: 5-20 mg/L) | 4 (4: <1 mg/L) | 2 (2: 5-20 mg/L)
